Measured values published in patent publication US20130030012A1, “COMPOUNDS” (Glaxo Group Limited, priority 2011, published 2013).

Columns and labels:
[1] = tested on: proinflammatory (M1) and anti-inflammatory (M2) markers in splenic and CNS infiltrating macrophages; assay: Ex vivo analysis of M1 and M2 markers in macrophages of EAE rats by realtime PCR; parameters: species or system rat; settings: spleen harvested day 13 post MBP-immunization
Description: Ex vivo analysis of proinflammatory (M1) and anti-inflammatory (M2) markers in control and compound treated EAE rats. Splenic macrophages were harvested at day 13 post MBP-immunization and assayed for expression of a variety of markers by realtime PCR. CNS infiltrating cells were harvested and macrophages were analyzed for expression of M1 and M2 markers by realtime PCR.

[2] = tested on: experimental autoimmune encephalomyelitis (EAE) rats; assay: Rat experimental autoimmune encephalomyelitis (EAE) model, preventive treatment; format: in vivo
Description: A further study was carried out to study the impact of Lp-PLA2 inhibitors on modulating M1/M2 imbalance. In this study, rats were induced to develop experimental autoimmune encephalomyelitis (EAE) by immunization with myelin basic protein (MBP) antigen and treated with a known Lp-PLA2 inhibitor: 5-((9-Methoxy-4-oxo-6,7-dihydro-4H-pyrimido[6,1-a]isoquinolin-2-yl)oxy)-2-(3-(trifluoromethyl)phenoxy)benzonitrile (See PCT application no. PCT/CN2011/001597). In this preventive treatment model, the compound was administered at day 0 (day of immunization) and continued to administer until day 22. The study lasted for 25 days. Rats were subsequently monitored for symptoms of EAE. Rats were immunized with MBP to develop EAE and symptoms were monitored daily. Plasma Lp-PLA2 activity, OxLDL, and LysoPC concentration were determined at different time points through the course of EAE.

Structure (SMILES): COc1ccc2c(c1)CCn1c-2cc(Oc2ccc(Oc3cccc(C(F)(F)F)c3)c(C#N)c2)nc1=O [5-((9-Methoxy-4-oxo-6,7-dihydro-4H-pyrimido[6,1-a]isoquinolin-2-yl)oxy)-2-(3-(trifluoromethyl)phenoxy)benzonitrile]
- M1 markers expression [1]: decrease in M1 markers
- M2 markers expression [1]: increase in M2 markers
- LysoPC levels ([2]; rat EAE plasma): decreased
- plasma Lp-PLA2 activity ([2]; rat EAE plasma): decreased Lp-PLA2 activity
- clinical disease ([2]; rat EAE, MBP immunization, compound administered day 0 to day 22): reduction in clinical disease
